pIC50: −log10 of the molar value.
Tests used:
[1] = test system: ERMT (therapy resistant) xenografts; test: ERMT therapy resistant xenografts; type: in vivo, nude mice; conditions: 10 mg/kg/day oral
Experimental: FIGS. 8A & 8B show the effect of TK41 (i.e., ERX-41) on therapy resistant cancer cells. ERMT (therapy resistant) xenografts (n=8) were established in nude mice and treated with vehicle (circle markers) or 10 mg/kg/day/oral ERX-41 (square markers).

[2] = test system: 22 human preclinical TNBC cell line models; test: WST assay in TNBC cell lines; type: cell-based; conditions: 22 TNBC cell lines, read-out: IC50, WST assays
From the text: FIGS. 34A-C: Dose response curve of ERX-41 in multiple TNBC. cell lines using WST-1 assays (FIG. 34A) and CellTiter-Glo assays (FIG. 34B). […] Quantification of the number of dead cells over time seen with live cell imaging in MDAMB-231 and HMEC cells is shown.
To evaluate the generalizability of the inventors' findings, they evaluated ERX-41 in a large number of TNBC and ERa-positive cell lines.

[3] = test system: MDA-MB-231 TNBC xenografts; test: MDA-MB-231 TNBC xenografts; type: in vivo, mice; conditions: oral 10 mg/kg/day
Experimental: (§1) FIGS. 5A-5C show the effect of TK41 on triple negative breast cancer xenograft tumors. MDA-MB-231 (TNBC; n=10) xenografts were established in nude mice and treated with either vehicle (circle markers) or 10 mg/kg/day TK41 (square markers) administered as an oral gavage in Captisol®. Comparison of mice body weights is shown in bar graphs (FIG. 5A). Photographs of individual tumors at necropsy supports the effect of TK41 on TNBC. *p<0.05; **** p<0.001.
FIGS. 35A-P: ERX-41 is potent against TNBC in vivo. (FIG. 35A) Following establishment of subcutaneous MDA-MB-231 xenograft tumors (200 mm^3), 10 mg/kg single dose ERX-41 was administered either by oral or intraperitoneal route. The tumor was harvested 0, 0, 5, 1, 5, 3, 6 and 24 h after drug administration and the drug levels assayed by LC-MS/MS and graphed. (FIGS. 35B-E) Following establishment of MDA-MB-231 xenografts in mammary fat pad in vivo (100 mm^3 size), daily administration of 10 mg/kg ERX-41 or vehicle control (N=8 each group) was initiated. Tumor volumes were measured using digital calipers and graphed (FIG. 35B). Tumor weights (FIG. 35C), body weights (FIG. 35D) and extirpated tumors (FIG. 35E) at end of study are also shown. […] Tumor volumes were measured using digital calipers and graphed (FIG. 35F) along with tumor weights (FIG. 35G) and body weights (FIG. 35H). […]

tumor growth = test: Animal studies with TK41; type: in vivo
Experimental: FIGS. 4A-4C show the effect of TK41 on estrogen receptor-positive (ER+ve) tumor growth. ZR75 (ER+ve; n=18) xenografts were established in nude mice and treated with either vehicle (circle markers) or 10 mg/kg/day TK41 (square markers) administered as an oral gavage in Captisol®. Comparison of mice body weights is shown in bar graphs (FIG. 4C). *p<0.05; **** p<0.001.
as §1
TNBC is difficult to be treated and currently there are no good drugs available in the market.

D2A1 xenografts = test: D2A1 syngeneic tumor model; type: in vivo, mice; conditions: 10 mg/kg daily
Experimental: FIGS. 35A-P: ERX-41 is potent against TNBC in vivo. (FIG. 35A) Following establishment of subcutaneous MDA-MB-231 xenograft tumors (200 mm^3), 10 mg/kg single dose ERX-41 was administered either by oral or intraperitoneal route. The tumor was harvested 0, 0, 5, 1, 5, 3, 6 and 24 h after drug administration and the drug levels assayed by LC-MS/MS and graphed. (FIGS. 35B-E) Following establishment of MDA-MB-231 xenografts in mammary fat pad in vivo (100 mm^3 size), daily administration of 10 mg/kg ERX-41 or vehicle control (N=8 each group) was initiated. Tumor volumes were measured using digital calipers and graphed (FIG. 35B). Tumor weights (FIG. 35C), body weights (FIG. 35D) and extirpated tumors (FIG. 35E) at end of study are also shown. (FIGS. 35F-H) Following establishment of D2A1 syngeneic xenografts in mammary fat pad in vivo (100 mm^3 size), daily administration of 10 mg/kg ERX-41 or vehicle control (N=8 each group) was initiated. Tumor volumes were measured using digital calipers and graphed (FIG. 35F) along with tumor weights (FIG. 35G) and body weights (FIG. 35H). (FIGS. 35I-P) Effect of ERX-41 on the growth (FIG. 351, FIG. 35K, FIG. 35M, FIG. 35O) and tumor weights (FIG. 35J, FIG. 35L, FIG. 35N, FIG. 35P) of four distinct TNBC PDXs compared to vehicle. *p<0.05. **p<0.01; ***p<0.001. […]

[4] = test system: SUM-159 cells with LIPA KO; test: Live cell imaging of SUM-159 with LIPA KO; type: cell-based; conditions: 1 μM
From the text: FIGS. 37A-J: The molecular target of ERX-41 in TNBC is LIPA. […] (FIG. 37B) Knockout clones of LIPA, ACACA, TMEM208, SOAT1 and ARID1A were generated in MDA-MB-231 cells and evaluated for response to ERX-41 using doseresponse curves using CellTiter-Glo assays in vitro. (FIGS. 37C-D) Effect of knockout of LIPA in SUM-159 (FIG. 37C) and MDA-MB436 (FIG. 37D) on dose response curve to ERX-41 using CellTiter-Glo assays in vitro. (FIGS. 37E-F) Dose response curves of SUM-159 parental cells and clones with LIPA KO to thapsigargin (FIG. 37E) and paclitaxel (FIG. 37F). (FIGS. 37G-H) Live cell imaging studies with SYTOX Green to examine ability of 1 μM ERX-41 to induce cell death in parental SUM-159 and SUM-159 clones with LIPA KO, with quantitation (FIG. 37G) and time-lapsed photomicrographs at 0 h and 30 h ((FIG. 37H). (FIGS. 37I-J) SCID mice were implanted with either parental SUM-159 or SUM-159 clones with LIPA KO (n=6, each group) and tumors were allowed to establish (150 mm^3). Following daily intraperitoneal administration of 10 mg/kg ERX-41, tumor sizes were measured and graphed (FIG. 37I), along with mice body weights (FIG. 37J). *p<0.05. **p<0.01; ***p<0.001.
The molecular target of ERX-41 in TNBC is LIPA. […] Knockout clones of LIPA, SLC5A3, SMAP2, TMEM208, SOAT1 and ARID1A were generated in multiple TNBC cells and evaluated for response to ERX-41.

[5] = Pharmacokinetic studies of ERX-41; type: in vivo, mice
Experimental: FIGS. 35A-P: ERX-41 is potent against TNBC in vivo. (FIG. 35A) Following establishment of subcutaneous MDA-MB-231 xenograft tumors (200 mm^3), 10 mg/kg single dose ERX-41 was administered either by oral or intraperitoneal route. The tumor was harvested 0, 0, 5, 1, 5, 3, 6 and 24 h after drug administration and the drug levels assayed by LC-MS/MS and graphed. (FIGS. 35B-E) Following establishment of MDA-MB-231 xenografts in mammary fat pad in vivo (100 mm^3 size), daily administration of 10 mg/kg ERX-41 or vehicle control (N=8 each group) was initiated. Tumor volumes were measured using digital calipers and graphed (FIG. 35B). Tumor weights (FIG. 35C), body weights (FIG. 35D) and extirpated tumors (FIG. 35E) at end of study are also shown. (FIGS. 35F-H) Following establishment of D2A1 syngeneic xenografts in mammary fat pad in vivo (100 mm^3 size), daily administration of 10 mg/kg ERX-41 or vehicle control (N=8 each group) was initiated. Tumor volumes were measured using digital calipers and graphed (FIG. 35F) along with tumor weights (FIG. 35G) and body weights (FIG. 35H). (FIGS. 35I-P) Effect of ERX-41 on the growth (FIG. 351, FIG. 35K, FIG. 35M, FIG. 35O) and tumor weights (FIG. 35J, FIG. 35L, FIG. 35N, FIG. 35P) of four distinct TNBC PDXs compared to vehicle. *p<0.05. **p<0.01; ***p<0.001.
Additionally, ERX-41 was detectable within 1.5 h in established subcutaneous MDA-MB-231 xenograft tumors after oral or intraperitoneal administration (FIG. 35A). […] ERX-41 decreased tumor growth, as shown by extirpated tumor sizes at the end of study (FIG. 35C and FIG. 35E). […] The inventors validated the activity of ERX-41 in four distinct TNBC PDXs established in the mammary fat pad (FIGS. 35I-P).

CC(C)COc1cc(C(=O)Nc2ccc(C(=O)N[C@H]3CC[C@H](C)CC3)cc2OCC(C)C)ccc1NC(=O)c1ccc([N+](=O)[O-])c(OCCO)c1 [TK41]
activity against ERMT tumors [1]: has activity against ERMT tumors | pIC50 [2]: > 6.30 | growth of MDA-MB-231 xenografts [3]: significantly decreased the growth | mouse body weights [3]: no alterations in mouse body weights | side effects or toxicity (tumor growth; animal studies): no apparent side effects or toxicity | tumor growth inhibition (tumor growth; animal studies): outstanding tumor growth inhibition | oral availability (tumor growth; mouse, in vivo, po): orally available | growth of D2A1 xenografts (D2A1 xenografts): significantly reduce the growth | cell death after KO of LIPA [4]: dramatic decrease in cell death | oral bioavailability ([5]; mouse, in vivo, po): orally bioavailable | time of peak detectable levels in the plasma ([5]; oral, 10 mg/kg single dose): 4 h | time until detectable in tumors ([5]; subcutaneous MDA-MB-231 xenograft tumors, oral or intraperitoneal): ≤ 1.5 h
